Values after ≈ are worked out from the molar mass of the structure shown. Where two headings read alike, the source gives them in different places.
Columns and labels:
[1] = tested on: MRSA ATCC-BAA-1680; test: MIC, panel of MRSA strains: ATCC-BAA-1680; format: cell-based; details: Staphylococcus aureus; MRSA strain ATCC-BAA-1680
Procedure: (§1) Using a sterile loop, 3 to 5 isolated colonies of bacteria of the same morphological appearance are selected from the overnight agar plate. The colonies are transferred into a conical flask containing 5 mL of liquid medium (i.e. Mueller-Hinton broth). The broth is incubated at 37° C. in a shaker at 220 rpm until it reaches a turbidity that is equal to the turbidity of a McFarland Standard 0.5 (correspond to 1×10^8 cfu/mL). This culture growth step will require 1-2 hours depending on the bacteria tested.
(§2) During this pause period, an antibacterial dilution is prepared. Therefore an antibacterial stock solution is diluted in Mueller-Hinton broth. The concentration of DMSO is kept at 5%. 100 μL of the antibacterial solution are dispensed into the first well of a row. 50 μL of medium containing 0.5% of DMSO are dispensed to the rest of the wells. […]
(§3) The bacterial suspension prepared above is mixed thoroughly, and diluted by a factor of 1:100 in the sterile medium. […] The colonies on the agar plate are counted the next day to verify that the right number of cfu was inoculated. The plate is agitated in the SpectraMax spectrophotometer for 90 s and the OD600 for all the wells in the plate is recorded. […]

[2] = tested on: MRSA ATCC-1720; test: MIC, panel of MRSA strains: ATCC-1720; format: cell-based; details: Staphylococcus aureus; MRSA strain ATCC-1720
Procedure: as §1, §2, §3

[3] = tested on: MRSA (ATCC 33591); test: MIC determination by broth microdilution vs. MRSA (ATCC 33591); format: cell-based, Staphylococcus aureus; details: Staphylococcus aureus
Procedure: as §1
During this pause period, an antibacterial dilution is prepared. Therefore an antibacterial stock solution is diluted in Mueller-Hinton broth. The concentration of DMSO is kept at 5%. 100 μL of the antibacterial solution are dispensed into the first well of a row. 50 μL of medium containing 0.5% of DMSO are dispensed to the rest of the wells. A 2-fold serial dilution is achieved by transferring 50 μL from the first well (containing the highest concentration of antibacterial) into the second well, and continuing like this until the 10th well in the row. The final 50 μL are discarded so that every well has 50 μL of each antibacterial dilution.
The 11th well was used as the growth control well (medium with bacterial inoculums, no antibacterial) while the 12th well was the sterility control well (medium only).
The bacterial suspension prepared above is mixed thoroughly, and diluted by a factor of 1:100 in the sterile medium. Each well and the growth control well is inoculated with 50 μL of the bacterial suspension. […] To the sterility control well 50 μL of sterile medium are added in place of the bacterial suspension. 10 μL aliquot from the growth control well is removed immediately after inoculating the plate and pipetted it into a sterile Eppendorf tube holding 990 μL of sterile broth. It is mixed well by vortexing. This suspension is further diluted (1:10) by pipetting 100 μL into 900 μL of sterile broth and mixing it well. 100 μL of each of the two dilutions are plated onto two different antibacterial-free agar plates. A sterile cell spreader is used to spread the liquid. Then the plate is sealed with a transparent adhesive film. The microtiter plate and agar plates are incubated at 37° C. for 16-20 hours or until satisfactory growth is obtained. The colonies on the agar plate are counted the next day to verify that the right number of cfu was inoculated. The plate is agitated in the SpectraMax spectrophotometer for 90 s and the OD600 for all the wells in the plate is recorded.

[4] = tested on: MRSA ATCC-BAA-44; test: MIC, panel of MRSA strains: ATCC-BAA-44; format: cell-based; details: Staphylococcus aureus; MRSA strain ATCC-BAA-44
Procedure: as §1, §2, §3

[5] = tested on: MRSA ATCC-700699; test: MIC, panel of MRSA strains: ATCC-700699; format: cell-based; details: Staphylococcus aureus; MRSA strain ATCC-700699
Procedure: as §1, §2, §3

[6] = tested on: MRSA ATCC-2094; test: MIC, panel of MRSA strains: ATCC-2094; format: cell-based; details: Staphylococcus aureus; MRSA strain ATCC-2094
Procedure: as §1, §2, §3

[7] = tested on: MRSA ATCC-BAA-1681; test: MIC, panel of MRSA strains: ATCC-BAA-1681; format: cell-based; details: Staphylococcus aureus; MRSA strain ATCC-BAA-1681
Procedure: as §1, §2, §3

With `N=C(N)NCCCCNC(=O)[C@@H](Cc1ccc(-c2ccccc2)cc1)NC(=O)[C@@H](CCCNC(=N)N)NC(=O)[C@H](N)Cc1ccc(-c2ccccc2)cc1` [Compound (A)] the MIC [1] was 1.56 µM (≈ 1.15 µg/mL), the MIC [2] was 3.12 µM (≈ 2.29 µg/mL) and the MIC ([3]; MRSA (ATCC 33591), read-out: MIC) was 1.56 µM (≈ 1.14 µg/mL). For the same compound, the MIC ([3]; MRSA strain ATCC-33591, read-out: MIC values) was 1.56 µM (≈ 1.15 µg/mL), the MIC [4] was 3.12 µM (≈ 2.29 µg/mL) and the MIC [5] was 3.12 µM (≈ 2.29 µg/mL). For the same compound, the MIC [6] was 3.12 µM (≈ 2.29 µg/mL) and the MIC [7] was 3.12 µM (≈ 2.29 µg/mL).
